How the values were obtained:
Format in all cases: in vivo
[1] = tested on: Italian ryegrass (Lolium mutiflorum); experiment: Test C preemergence, visual plant response rating
Excerpt: (§1) Seeds of plant species selected from barnyardgrass (Echinochloa crus-galli), kochia (Bassia scoparia), ragweed (common ragweed, Ambrosia artemisiifolia), Italian ryegrass (Lolium mutiflorum), foxtail, giant (giant foxtail, Setaria faberi), foxtail, green (green foxtail, Setaria viridis), and pigweed (Amaranthus retroflexus) were planted into a blend of loam soil and sand and treated preemergence with a directed soil spray using test chemicals formulated in anon-phytotoxic solvent mixture which included a surfactant.
(§2) At the same time, plants selected from these weed species and also wheat (Triticum aestivum), corn (Zea mays), blackgrass (Alopecurus myosuroides), and galium (catchweed bedstraw, Galium aparine) were planted in pots containing the same blend of loam soil and sand and treated with post emergence applications of test chemicals formulated in the same manner. Plants ranged in height from 2 to 10 cm and were in the one- to two-leaf stage for the postemergence treatment. Treated plants and untreated controls were maintained in a greenhouse for approximately 10 d, after which time all treated plants were compared to untreated controls and visually evaluated for injury. Plant response ratings, summarized in Table C, are based on a 0 to 100 scale where 0 is no effect and 100 is complete control. A dash (-)response means no test result.

[2] = tested on: barnyardgrass (Echinochloa crus-galli); experiment: Test C preemergence, visual plant response rating
Excerpt: as §1, §2

[3] = tested on: foxtail, giant (giant foxtail, Setaria faberi); experiment: Test C preemergence, visual plant response rating
Excerpt: as §1, §2

[4] = tested on: kochia (Bassia scoparia); experiment: Test C preemergence, visual plant response rating
Excerpt: as §1, §2

[5] = tested on: pigweed (Amaranthus retroflexus); experiment: Test C preemergence, visual plant response rating
Excerpt: as §1, §2

[6] = tested on: Italian ryegrass (Lolium mutiflorum); experiment: Test C postemergence, visual plant response rating
Excerpt: as §1, §2

[7] = tested on: barnyardgrass (Echinochloa crus-galli); experiment: Test C postemergence, visual plant response rating
Excerpt: as §1, §2

[8] = tested on: blackgrass (Alopecurus myosuroides); experiment: Test C postemergence, visual plant response rating
Excerpt: as §1, §2

[9] = tested on: corn (Zea mays); experiment: Test C postemergence, visual plant response rating
Excerpt: as §1, §2

[10] = tested on: foxtail, giant (giant foxtail, Setaria faberi); experiment: Test C postemergence, visual plant response rating
Excerpt: as §1, §2

[11] = tested on: galium (catchweed bedstraw, Galium aparine); experiment: Test C postemergence, visual plant response rating
Excerpt: as §1, §2

[12] = tested on: kochia (Bassia scoparia); experiment: Test C postemergence, visual plant response rating
Excerpt: as §1, §2

[13] = tested on: pigweed (Amaranthus retroflexus); experiment: Test C postemergence, visual plant response rating
Excerpt: as §1, §2

[14] = tested on: ragweed (common ragweed, Ambrosia artemisiifolia); experiment: Test C postemergence, visual plant response rating
Excerpt: as §1, §2

[15] = tested on: wheat (Triticum aestivum); experiment: Test C postemergence, visual plant response rating
Excerpt: as §1, §2

[16] = tested on: barnyardgrass (Echinochloa crus-galli); experiment: Test D flooded paddy test, visual plant response rating; conditions: 250 g ai/ha, scale 0 to 100 (0 no effect, 100 complete control), 13 to 15 d
Protocol: (§3) Plant species in the flooded paddy test selected from rice (Oryza sativa), sedge umbrella (small-flower umbrella sedge, Cyperus difformis) duck salad (Heteranthera limosa), and barnyardgrass (Echinochloa crus-galli) were grown to the 2-leaf stage for testing. At time of treatment, test pots were flooded to 3 cm above the soil surface, treated by application of test compounds directly to the paddy water, and then maintained at that water depth for the duration of the test. Treated plants and controls were maintained in a greenhouse for 13 to 15 d, after which time all species were compared to controls and visually evaluated. Plant response ratings, summarized in Table D, are based on a scale of 0 to 100 where 0 is no effect and 100 is complete control. A dash (-) response means no test result.

[17] = tested on: duck salad (Heteranthera limosa); experiment: as above; conditions: 250 g ai/ha, scale 0 to 100 (0 no effect, 100 complete control), 13 to 15 d
Protocol: as §3

[18] = tested on: rice (Oryza sativa); experiment: as above; conditions: 250 g ai/ha, scale 0 to 100 (0 no effect, 100 complete control), 13 to 15 d
Protocol: as §3

[19] = tested on: sedge umbrella (small-flower umbrella sedge, Cyperus difformis); experiment: as above; conditions: 250 g ai/ha, scale 0 to 100 (0 no effect, 100 complete control), 13 to 15 d
Protocol: as §3

[20] = Test C, postemergence, 125 g ai/ha
[21] = Test C, postemergence, 500 g ai/ha
[22] = Test C, 31 g ai/ha, 0 is no effect, 100 is complete control

Row | SMILES | Ryegrass, Italian plant response rating (0 to 100 scale) ([1]; 125 g ai/ha) | Barnyardgrass plant response rating (0 to 100 scale) ([2]; 125 g ai/ha) | Foxtail, Giant plant response rating (0 to 100 scale) ([3]; 125 g ai/ha) | Kochia plant response rating (0 to 100 scale) ([4]; 125 g ai/ha) | Pigweed plant response rating (0 to 100 scale) ([5]; 125 g ai/ha) | Ryegrass, Italian plant response rating (0 to 100 scale) [6, 20] | Barnyardgrass plant response rating (0 to 100 scale) [7, 20] | Blackgrass plant response rating (0 to 100 scale) [8, 20] | Corn plant response rating (0 to 100 scale) [9, 20] | Foxtail, Giant plant response rating (0 to 100 scale) [10, 20] | Galium plant response rating (0 to 100 scale) [11, 20] | Kochia plant response rating (0 to 100 scale) [12, 20] | Pigweed plant response rating (0 to 100 scale) [13, 20] | Ragweed plant response rating (0 to 100 scale) [14, 20] | Wheat plant response rating (0 to 100 scale) [15, 20] | Plant response rating, Barnyardgrass (Flood) [16] | Plant response rating, Ducksalad (Flood) [17] | Plant response rating, Rice (Flood) [18] | Plant response rating, Sedge, Umbrella (Flood) [19] | Ryegrass, Italian plant response rating (0 to 100 scale) [1, 22] | other results
1 | C#CCON=C(c1c(O)c(OC)nn(C)c1=O)c1cccc2ccccc12 (mixture of isomers) [Compound 168] | 20 | 60 | 80 | 0 | 100 | 40 | 40 | 20 | 0 | 50 | 70 | 70 | 60 | 60 | 0 | 0 | 0 | 0 | 0 | – | Ryegrass, Italian plant response rating (0 to 100 scale) ([1]; 500 g ai/ha): 90; Barnyardgrass plant response rating (0 to 100 scale) ([2]; 500 g ai/ha): 80; Foxtail, Giant plant response rating (0 to 100 scale) ([3]; 500 g ai/ha): 100; Kochia plant response rating (0 to 100 scale) ([4]; 500 g ai/ha): 10; Pigweed plant response rating (0 to 100 scale) ([5]; 500 g ai/ha): 100; Ryegrass, Italian plant response rating (0 to 100 scale) [6, 21]: 90; Barnyardgrass plant response rating (0 to 100 scale) [7, 21]: 60; Blackgrass plant response rating (0 to 100 scale) [8, 21]: 80; Corn plant response rating (0 to 100 scale) [9, 21]: 20; Foxtail, Giant plant response rating (0 to 100 scale) [10, 21]: 90; Galium plant response rating (0 to 100 scale) [11, 21]: 90; Kochia plant response rating (0 to 100 scale) [12, 21]: 80; Pigweed plant response rating (0 to 100 scale) [13, 21]: 100; Ragweed plant response rating (0 to 100 scale) [14, 21]: 90; Wheat plant response rating (0 to 100 scale) [15, 21]: 30
2 | CCON=C(c1cc(Cl)cc(Br)c1)c1c(O)c(C)nn(C)c1=O [Compound 180] | 100 | 80 | 100 | 100 | 80 | 100 | 60 | 30 | 20 | 90 | 100 | 90 | 70 | 100 | 50 | 40 | 60 | 0 | 65 | 40 | Barnyardgrass plant response rating (0 to 100 scale) [2, 22]: 0; Foxtail, Giant plant response rating (0 to 100 scale) [3, 22]: 70; Kochia plant response rating (0 to 100 scale) [4, 22]: 0; Pigweed plant response rating (0 to 100 scale) [5, 22]: 50; Ryegrass, Italian plant response rating (0 to 100 scale) ([6]; Postemergence, 31 g ai/ha): 70; Barnyardgrass plant response rating (0 to 100 scale) ([7]; Postemergence, 31 g ai/ha): 30; Blackgrass plant response rating (0 to 100 scale) ([8]; Postemergence, 31 g ai/ha): 0; Corn plant response rating (0 to 100 scale) ([9]; Postemergence, 31 g ai/ha): 0; Foxtail, Giant plant response rating (0 to 100 scale) ([10]; Postemergence, 31 g ai/ha): 70; Galium plant response rating (0 to 100 scale) ([11]; Postemergence, 31 g ai/ha): 90; Kochia plant response rating (0 to 100 scale) ([12]; Postemergence, 31 g ai/ha): 80; Pigweed plant response rating (0 to 100 scale) ([13]; Postemergence, 31 g ai/ha): 10; Ragweed plant response rating (0 to 100 scale) ([14]; Postemergence, 31 g ai/ha): 100; Wheat plant response rating (0 to 100 scale) ([15]; Postemergence, 31 g ai/ha): 30
3 | CCON=C(c1cc(Cl)cc(Br)c1)c1c(O)c(C)nn(C)c1=O [Compound 181] | 90 | 60 | 90 | 70 | 90 | 100 | 60 | 20 | 30 | 80 | 100 | 80 | 90 | 100 | 50 | 0 | 0 | 0 | 0 | 0 | Barnyardgrass plant response rating (0 to 100 scale) [2, 22]: 0; Foxtail, Giant plant response rating (0 to 100 scale) [3, 22]: 50; Kochia plant response rating (0 to 100 scale) [4, 22]: 30; Pigweed plant response rating (0 to 100 scale) [5, 22]: 30; Ryegrass, Italian plant response rating (0 to 100 scale) ([6]; Postemergence, 31 g ai/ha): 70; Barnyardgrass plant response rating (0 to 100 scale) ([7]; Postemergence, 31 g ai/ha): 40; Blackgrass plant response rating (0 to 100 scale) ([8]; Postemergence, 31 g ai/ha): 0; Corn plant response rating (0 to 100 scale) ([9]; Postemergence, 31 g ai/ha): 0; Foxtail, Giant plant response rating (0 to 100 scale) ([10]; Postemergence, 31 g ai/ha): 50; Galium plant response rating (0 to 100 scale) ([11]; Postemergence, 31 g ai/ha): 100; Kochia plant response rating (0 to 100 scale) ([12]; Postemergence, 31 g ai/ha): 60; Pigweed plant response rating (0 to 100 scale) ([13]; Postemergence, 31 g ai/ha): 40; Ragweed plant response rating (0 to 100 scale) ([14]; Postemergence, 31 g ai/ha): 100; Wheat plant response rating (0 to 100 scale) ([15]; Postemergence, 31 g ai/ha): 0
4 | Cc1nn(C)c(=O)c(C(=NOCC2CC2)c2cc(Cl)cc(Cl)c2Cl)c1O [Compound 182] | 100 | 90 | 100 | 0 | 70 | 100 | 60 | 10 | 30 | 90 | 100 | 70 | 50 | 100 | 70 | 0 | 0 | 0 | 0 | 30 | Barnyardgrass plant response rating (0 to 100 scale) [2, 22]: 0; Foxtail, Giant plant response rating (0 to 100 scale) [3, 22]: 70; Kochia plant response rating (0 to 100 scale) [4, 22]: 0; Pigweed plant response rating (0 to 100 scale) [5, 22]: 0; Ryegrass, Italian plant response rating (0 to 100 scale) ([6]; Postemergence, 31 g ai/ha): 70; Barnyardgrass plant response rating (0 to 100 scale) ([7]; Postemergence, 31 g ai/ha): 50; Blackgrass plant response rating (0 to 100 scale) ([8]; Postemergence, 31 g ai/ha): 10; Corn plant response rating (0 to 100 scale) ([9]; Postemergence, 31 g ai/ha): 0; Foxtail, Giant plant response rating (0 to 100 scale) ([10]; Postemergence, 31 g ai/ha): 70; Galium plant response rating (0 to 100 scale) ([11]; Postemergence, 31 g ai/ha): 70; Kochia plant response rating (0 to 100 scale) ([12]; Postemergence, 31 g ai/ha): 10; Pigweed plant response rating (0 to 100 scale) ([13]; Postemergence, 31 g ai/ha): 10; Ragweed plant response rating (0 to 100 scale) ([14]; Postemergence, 31 g ai/ha): 40; Wheat plant response rating (0 to 100 scale) ([15]; Postemergence, 31 g ai/ha): 0

From patent US20210045385A1, “PYRIDAZINONE-SUBSTITUTED KETOXIMES AS HERBICIDES” (FMC Corporation, priority 2018, published 2021)
